{"source": "patent US9409905B2", "about": "“Antibacterial compounds and methods for use” (PTC THERAPEUTICS, INC., priority 2011, dated 2016)", "key": {"[1]": {"test_system": "Escherichia coli (E. coli) BAS849", "experiment": "Antibacterial activity, microbroth dilution MIC (Table 1)", "format": "cell-based", "settings": "microbroth dilution, super sensitive Gram-negative E. coli BAS849, read-out: MIC, BAS849", "summary_of_the_method": "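Growth inhibition by microbroth dilution. MIC = lowest μg/mL with no visible growth. Strain 25922 is the control Gram-negative; BAS849 is hypersensitive.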"}, "[2]": {"test_system": "Staphylococcus aureus (S. aureus) 29213", "experiment": "Antibacterial activity, microbroth dilution MIC (Table 1)", "format": "cell-based", "settings": "microbroth dilution, Gram-positive S. aureus 29213, read-out: MIC, 29213", "summary_of_the_method": "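Broth microdilution against S. aureus 29213, E. coli 25922 and hypersensitive E. coli BAS849. MIC in μg/mL is the lowest drug concentration preventing macroscopically visible growth under test conditions.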"}, "[3]": {"test_system": "E. coli 25922", "experiment": "Antibacterial activity, microbroth dilution MIC (Table 1)", "format": "cell-based, Escherichia coli", "settings": "Escherichia coli; microbroth dilution; control Gram-negative E. coli 25922 strain; read-out: MIC, 25922", "summary_of_the_method": "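Potency is reported as minimum inhibitory concentration in μg/mL, determined by broth microdilution as the lowest level of compound that stops growth visible to the eye.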"}, "[4]": {"test_system": "E. coli LZ3111", "experiment": "Antibacterial activity, MIC, quinolone resistant strain (Table 2)", "format": "cell-based", "settings": "Escherichia coli, LZ3111, read-out: MIC LZ3111", "summary_of_the_method": "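MIC values (μg/mL) came from a microbroth dilution assay, scored as the lowest drug concentration at which no growth was visible by eye.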"}, "[5]": {"test_system": "E. coli ELZ4000", "experiment": "Antibacterial activity, MIC, multi-drug resistant clinical isolate (Table 3)", "format": "cell-based", "settings": "Escherichia coli, ELZ4000, read-out: MIC ELZ4000", "summary_of_the_method": "(§1)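 Compounds were serially diluted in broth microdilution format and growth was scored visually; the MIC is the lowest concentration at which no macroscopically visible growth occurred, expressed in μg/mL.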"}, "[6]": {"test_system": "E. coli ELZ4251", "experiment": "Antibacterial activity, MIC, multi-drug resistant clinical isolate (Table 3)", "format": "cell-based", "settings": "Escherichia coli", "summary_of_the_method": "as §1"}, "[7]": {"test_system": "Acinetobacter baumannii (A. baumannii) BAA747", "experiment": "Antibacterial activity, MIC (Table 4)", "format": "cell-based", "settings": "A. baumannii BAA747, read-out: MIC, BAA747", "summary_of_the_method": "(§2)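 Values are MICs in μg/mL, read as the lowest compound concentration at which no growth is visible by eye. They come from a microbroth dilution method.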"}, "[8]": {"test_system": "Klebsiella pneumoniae (K. pneumoniae) 35657", "experiment": "Antibacterial activity, MIC (Table 4)", "format": "cell-based", "settings": "K. pneumoniae 35657, read-out: MIC, 35657", "summary_of_the_method": "as §2"}, "[9]": {"test_system": "A. baumannii MXX2240", "experiment": "Antibacterial activity, MIC, resistant strain (Table 4)", "format": "cell-based", "settings": "Acinetobacter baumannii, MXX2240; resistant A. baumannii MMX2240, multi-drug resistant clinical isolate; read-out: MIC, MMX2240", "summary_of_the_method": "as §2"}, "[10]": {"test_system": "K. pneumoniae MXX1232", "experiment": "Antibacterial activity, MIC, resistant strain (Table 4)", "format": "cell-based", "settings": "Klebsiella pneumoniae, MXX1232; resistant K. pneumoniae MMX1232, multi-drug resistant clinical isolate; read-out: MIC, MMX1232", "summary_of_the_method": "as §2"}, "[11]": {"test_system": "Pseudomonas aeruginosa (P. aeruginosa) 27853", "experiment": "Antibacterial activity, MIC (Table 5)", "format": "cell-based", "settings": "P. aeruginosa 27853, read-out: MIC, 27853", "summary_of_the_method": "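Values are MICs in μg/mL, read as the lowest concentration at which no growth is visible by eye. They were determined by a microbroth dilution method.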"}, "[12]": {"test_system": "Haemophilus influenzae (H. influenzae) 49247", "experiment": "Antibacterial activity, MIC (Table 6)", "format": "cell-based", "summary_of_the_method": "(§3)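 Compounds are serially diluted in microbroth. Bacteria are then grown under the test conditions, and growth is inspected macroscopically. The MIC is recorded in μg/mL as the lowest concentration without visible growth.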"}, "[13]": {"test_system": "Moraxella catarrhalis (M. catarrhalis) 25238", "experiment": "Antibacterial activity, MIC (Table 7)", "format": "cell-based", "summary_of_the_method": "as §3"}, "[14]": {"test_system": "Neisseria meningitidis (N. meningitidis) 13090", "experiment": "Antibacterial activity, MIC (Table 8)", "format": "cell-based", "summary_of_the_method": "as §3"}}}
{"compound": "CCc1c(-c2ccc3c(c2)cc(CNCC2CC2)n3C)[nH]c(=O)c(C(=O)O)c1O.Cl", "note": "[Cpd 223, 6-(2-((cyclopropylmethylamino)methyl)-1-methyl-1H-indol-5-yl)-5-ethyl-4-hydroxy-2-oxo-1,2-dihydropyridine-3-carboxylic acid hydrochloride]", "values": [{"measurement": "MIC", "setting": "[1]", "value": "< 1", "unit": "µg/mL"}, {"measurement": "MIC", "setting": "[2]", "value": "3.5 to 12.5", "unit": "µg/mL"}, {"measurement": "MIC", "setting": "[3]", "value": "< 1", "unit": "µg/mL"}, {"measurement": "MIC", "setting": "[4]", "value": "1 to 3.5", "unit": "µg/mL"}, {"measurement": "MIC", "setting": "[5]", "value": "3.5 to 12.5", "unit": "µg/mL"}, {"measurement": "MIC", "setting": "[6]", "value": "12.5 to 150", "unit": "µg/mL"}, {"measurement": "MIC", "setting": "[7]", "value": "< 1", "unit": "µg/mL"}, {"measurement": "MIC", "setting": "[8]", "value": "3.5 to 12.5", "unit": "µg/mL"}, {"measurement": "MIC", "setting": "[9]", "value": "1 to 3.5", "unit": "µg/mL"}, {"measurement": "MIC", "setting": "[10]", "value": "12.5 to 150", "unit": "µg/mL"}, {"measurement": "MIC", "setting": "[11]", "value": "3.5 to 12.5", "unit": "µg/mL"}, {"measurement": "MIC", "setting": "[12]", "value": "< 1", "unit": "µg/mL"}, {"measurement": "MIC", "setting": "[13]", "value": "< 1", "unit": "µg/mL"}, {"measurement": "MIC", "setting": "[14]", "value": "< 1", "unit": "µg/mL"}]}
{"compound": "CCc1c(-c2ccc3c(c2)cc(CNC2CC2)n3C)[nH]c(=O)c(C(=O)O)c1O.Cl", "note": "[Cpd 228, 6-(2-((cyclopropylamino)methyl)-1-methyl-1H-indol-5-yl)-5-ethyl-4-hydroxy-2-oxo-1,2-dihydropyridine-3-carboxylic acid hydrochloride]", "values": [{"measurement": "MIC", "setting": "[1]", "value": "< 1", "unit": "µg/mL"}, {"measurement": "MIC", "setting": "[2]", "value": "3.5 to 12.5", "unit": "µg/mL"}, {"measurement": "MIC", "setting": "[3]", "value": "< 1", "unit": "µg/mL"}, {"measurement": "MIC", "setting": "[4]", "value": "1 to 3.5", "unit": "µg/mL"}, {"measurement": "MIC", "setting": "[5]", "value": "3.5 to 12.5", "unit": "µg/mL"}, {"measurement": "MIC", "setting": "[6]", "value": "1 to 3.5", "unit": "µg/mL"}, {"measurement": "MIC", "setting": "[7]", "value": "< 1", "unit": "µg/mL"}, {"measurement": "MIC", "setting": "[8]", "value": "1 to 3.5", "unit": "µg/mL"}, {"measurement": "MIC", "setting": "[9]", "value": "1 to 3.5", "unit": "µg/mL"}, {"measurement": "MIC", "setting": "[10]", "value": "12.5 to 150", "unit": "µg/mL"}, {"measurement": "MIC", "setting": "[11]", "value": "3.5 to 12.5", "unit": "µg/mL"}, {"measurement": "MIC", "setting": "[12]", "value": "< 1", "unit": "µg/mL"}, {"measurement": "MIC", "setting": "[13]", "value": "< 1", "unit": "µg/mL"}, {"measurement": "MIC", "setting": "[14]", "value": "< 1", "unit": "µg/mL"}]}
{"compound": "CCc1c(-c2ccc3c(c2)cc(CNCC2CCC2)n3C)[nH]c(=O)c(C(=O)O)c1O.Cl", "note": "[Cpd 235, 6-(2-((cyclobutylmethylamino)methyl)-1-methyl-1H-indol-5-yl)-5-ethyl-4-hydroxy-2-oxo-1,2-dihydropyridine-3-carboxylic acid hydrochloride]", "values": [{"measurement": "MIC", "setting": "[1]", "value": "< 1", "unit": "µg/mL"}, {"measurement": "MIC", "setting": "[2]", "value": "3.5 to 12.5", "unit": "µg/mL"}, {"measurement": "MIC", "setting": "[3]", "value": "< 1", "unit": "µg/mL"}, {"measurement": "MIC", "setting": "[4]", "value": "3.5 to 12.5", "unit": "µg/mL"}, {"measurement": "MIC", "setting": "[5]", "value": "12.5 to 150", "unit": "µg/mL"}, {"measurement": "MIC", "setting": "[6]", "value": "3.5 to 12.5", "unit": "µg/mL"}, {"measurement": "MIC", "setting": "[7]", "value": "< 1", "unit": "µg/mL"}, {"measurement": "MIC", "setting": "[8]", "value": "1 to 3.5", "unit": "µg/mL"}, {"measurement": "MIC", "setting": "[9]", "value": "3.5 to 12.5", "unit": "µg/mL"}, {"measurement": "MIC", "setting": "[10]", "value": "12.5 to 150", "unit": "µg/mL"}, {"measurement": "MIC", "setting": "[11]", "value": "12.5 to 150", "unit": "µg/mL"}, {"measurement": "MIC", "setting": "[12]", "value": "< 1", "unit": "µg/mL"}, {"measurement": "MIC", "setting": "[13]", "value": "< 1", "unit": "µg/mL"}, {"measurement": "MIC", "setting": "[14]", "value": "< 1", "unit": "µg/mL"}]}
{"compound": "CCc1c(-c2ccc3c(c2)cc(CN2CCN(C)CC2)n3C)[nH]c(=O)c(C(=O)O)c1O", "note": "[Cpd 169, 5-ethyl-4-hydroxy-6-(1-methyl-2-((4-methylpiperazin-1-yl)methyl)-1H-indol-5-yl)-2-oxo-1,2-dihydropyridine-3-carboxylic acid]", "values": [{"measurement": "MIC", "setting": "[1]", "value": "< 1", "unit": "µg/mL"}, {"measurement": "MIC", "setting": "[2]", "value": "3.5 to 12.5", "unit": "µg/mL"}, {"measurement": "MIC", "setting": "[3]", "value": "1 to 3.5", "unit": "µg/mL"}, {"measurement": "MIC", "setting": "[4]", "value": "3.5 to 12.5", "unit": "µg/mL"}, {"measurement": "MIC", "setting": "[5]", "value": "12.5 to 150", "unit": "µg/mL"}, {"measurement": "MIC", "setting": "[6]", "value": "12.5 to 150", "unit": "µg/mL"}, {"measurement": "MIC", "setting": "[7]", "value": "1 to 3.5", "unit": "µg/mL"}, {"measurement": "MIC", "setting": "[8]", "value": "1 to 3.5", "unit": "µg/mL"}, {"measurement": "MIC", "setting": "[9]", "value": "12.5 to 150", "unit": "µg/mL"}, {"measurement": "MIC", "setting": "[10]", "value": "12.5 to 150", "unit": "µg/mL"}, {"measurement": "MIC", "setting": "[11]", "value": "12.5 to 150", "unit": "µg/mL"}, {"measurement": "MIC", "setting": "[12]", "value": "1 to 3.5", "unit": "µg/mL"}, {"measurement": "MIC", "setting": "[13]", "value": "< 1", "unit": "µg/mL"}, {"measurement": "MIC", "setting": "[14]", "value": "< 1", "unit": "µg/mL"}]}
